Experiments:
[1] = target: Aldo-keto reductase family 1 member B1 (Rattus norvegicus, UniProt P07943); experiment: Inhibition of Sprague-Dawley rat lens ALR2 using D,L-glyceraldehyde as substrate preincubated for 10 mins followed by substrate addition measured for 5 mins by spectrophotometric method
[2] = target: Aldo-keto reductase family 1 member A1 (Rattus norvegicus, UniProt P51635); experiment: Inhibition of Sprague-Dawley rat kidney ALR1 using sodium D-glucuronate as substrate by spectrophotometric method
[3] = target: Aldo-keto reductase family 1 member B1 (Bos taurus, UniProt P16116); experiment: Inhibition of bovine lens ALR2 using D,L-glyceraldehyde as substrate measured for 4 mins by spectrophotometric method

Sequence of Aldo-keto reductase family 1 member A1 (P51635 whole entry, looked up): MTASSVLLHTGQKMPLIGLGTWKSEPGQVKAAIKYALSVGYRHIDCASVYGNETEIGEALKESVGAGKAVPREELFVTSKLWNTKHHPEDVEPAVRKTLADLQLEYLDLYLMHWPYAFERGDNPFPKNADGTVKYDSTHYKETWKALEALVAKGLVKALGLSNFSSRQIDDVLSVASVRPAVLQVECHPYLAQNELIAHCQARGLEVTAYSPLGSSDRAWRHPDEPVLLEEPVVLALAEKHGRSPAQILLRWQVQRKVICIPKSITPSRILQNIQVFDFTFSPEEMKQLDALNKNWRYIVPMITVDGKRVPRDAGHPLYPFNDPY

| IC50 [1] | IC50 [2] | IC50 [3] | SMILES |
| --- | --- | --- | --- |
| 2.38 µM | > 100 µM | – | COc1ccc(C(=O)N(OCc2ccccc2Cl)C(C)C(=O)O)cc1 (stereo not drawn) |
| 4.88 µM | > 100 µM | – | CC(C(=O)O)N(OCc1ccccc1Cl)C(=O)c1ccccc1 (stereo not drawn) |
| 10.1 µM | > 100 µM | – | COc1ccc(C(=O)N(OCc2ccc(Cl)cc2)C(C)C(=O)O)cc1 (stereo not drawn) |
| 2.69 µM | > 100 µM | – | CC(C(=O)O)N(OCc1ccc(Cl)cc1)C(=O)c1ccccc1 (stereo not drawn) |
| – | – | 6.3 µM | COc1ccc(C(=O)N(CC(=O)O)OCc2ccc(Cl)cc2)cc1 |
| > 100 µM | > 100 µM | – | COc1ccc(C(=O)N(OCc2ccccc2)C(C)C(=O)O)cc1 (stereo not drawn) |
| > 100 µM | > 100 µM | – | COc1ccc(C(=O)N(OCc2cccc(Cl)c2)C(C)C(=O)O)cc1 (stereo not drawn) |
| 46.7 µM | > 100 µM | – | CC(C(=O)O)N(OCc1ccccc1)C(=O)c1ccccc1 (stereo not drawn) |
| – | – | 3.5 µM | COc1ccc(C(=O)N(CC(=O)O)OCc2ccccc2)cc1 |
| 12.5 µM | > 100 µM | – | CC(C(=O)O)N(OCc1cccc(Cl)c1)C(=O)c1ccccc1 (stereo not drawn) |

— ChEMBL document CHEMBL4033633, “N-(Aroyl)-N-(arylmethyloxy)-α-alanines: Selective inhibitors of aldose reductase” (Bioorg Med Chem, 2017)
